The series in a line: accelerated storage stability at 40° C. and 75% relative humidity (active ingredient content).

On to `N[C@@H](Cc1cc(I)c(Oc2cc(I)c(O)c(I)c2)c(I)c1)C(=O)[O-].[Na+]` [Levothyroxine-Na], for which, for the setting “160 μg levothyroxine-Na preparation, water factor 0.3, 40° C. and 75% relative humidity, 3 months”, the “activity of the original quantity” value is given as 95.2 % by weight. For the same molecule, under “160 μg levothyroxine-Na preparation, water factors 0.4 to 0.5, 40° C. and 75% relative humidity, 3 months”, the residual activity stood at 90.7 % by weight.

With `N[C@@H](Cc1cc(I)c(Oc2ccc(O)c(I)c2)c(I)c1)C(=O)[O-].[Na+]` [liothyronine-Na], under “combination preparation containing 25 μg liothyronine-Na, water factor 0.25, one month”, the “employed quantity still active” value came to 97.7 % by weight. Further, the content remaining (combination preparation containing 25 μg liothyronine-Na, water factor 0.4 to 0.5, 1 month) was determined as 87.2%.

The values above are taken from patent US8293272B2, “Solid pharmaceutical preparation containing levothyroxine and/or liothyronine salts” (Globopharm Pharmazeutische Produktions-und …, priority 2003, dated 2012).
